Molecules are shown by their SMILES. Bounds are passed on as bounds.

The subject of one test is Puccinia recondita tritici = Puccinia triticina (PUCCRT). As to the kind of experiment: Fungicidal activity vs. leaf rust on wheat plants. It counts as in vivo. The following applies: wheat (Yuma) sprayed at 50 ppm, inoculated the following day, rated 7-9 days later, read-out: Puccinia Rating (% Disease Control @ 50 ppm). The method in brief: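 Wheat seedlings sprayed to wet with compound at 50 ppm in 10% acetone/90% Triton X100 water (~1500 L/ha), then inoculated next day with P. triticina spores and held humid overnight.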
As for `OC(Cn1cnnn1)(c1ccc(F)cc1F)C(F)(F)c1ccc(OCc2ccccc2)cn1` (stereo not shown) [Compound 30, 1-(5-(Benzyloxy)pyridin-2-yl)-2-(2,4-difluorophenyl)-1,1-difluoro-3-(1H-tetrazol-1-yl)propan-2-ol], the pest or weed control at 50 ppm lay within 80 to 100%.

Regarding `CC(C)COc1ccc(C(F)(F)C(O)(Cn2cnnn2)c2ccc(Cl)cc2F)nc1` (stereo not shown) [Compound 69, 2-(4-Chloro-2-fluorophenyl)-1,1-difluoro-1-(5-isobutoxypyridin-2-yl)-3-(1H-tetrazol-1-yl)propan-2-ol], the pest or weed control at 50 ppm is 80 to 100%.

Turning to `OC(Cn1cnnn1)(c1ccc(F)cc1F)C(F)(F)c1ccc(OCc2ccc(F)cc2F)cn1` (stereo not shown) [Compound 2, 1-(5-(2,4-Difluorobenzyloxy)pyridin-2-yl)-2-(2,4-difluorophenyl)-1,1-difluoro-3-(1H-tetrazol-1-yl)propan-2-ol], the pest or weed control at 50 ppm lay in the range of 80 to 100%.

`N#Cc1cccc(Oc2ccc(C(F)(F)C(O)(Cn3cnnn3)c3ccc(F)cc3F)nc2)c1` (stereo not shown) [Compound 78, 3-((6-(2-(2,4-Difluorophenyl)-1,1-difluoro-2-hydroxy-3-(1H-tetrazol-1-yl)propyl)pyridin-3-yl)oxy)benzonitrile]: the pest or weed control at 50 ppm lay in the range of 80 to 100%.

`O=Cc1ccc(Oc2ccc(C(F)(F)C(O)(Cn3cnnn3)c3ccc(F)cc3F)nc2)nc1` (stereo not shown) [Compound 101, 6-((6-(2-(2,4-difluorophenyl)-1,1-difluoro-2-hydroxy-3-(1H-tetrazol-1-yl)propyl)pyridin-3-yl)oxy)nicotinaldehyde]: the pest or weed control at 50 ppm was below 40%.

In the case of `N#Cc1ccc(C(F)(F)COc2ccc(C(F)(F)C(O)(Cn3cnnn3)c3ccc(F)cc3F)nc2)cc1` (stereo not shown) [Compound 121, 4-(2-((6-(2-(2,4-difluorophenyl)-1,1-difluoro-2-hydroxy-3-(1H-tetrazol-1-yl)propyl)pyridin-3-yl)oxy)-1,1-difluoroethyl)benzonitrile], the pest or weed control at 50 ppm is 80 to 100%.

Consider `OC(Cn1cnnn1)(c1ccc(F)cc1F)C(F)(F)c1ccc(OCC2CC2)cn1` (stereo not shown) [Compound 39, 1-(5-(Cyclopropylmethoxy)pyridin-2-yl)-2-(2,4-difluorophenyl)-1,1-difluoro-3-(1H-tetrazol-1-yl)propan-2-ol], for which the pest or weed control at 50 ppm lay in the range of 80 to 100%.

`N#Cc1cccc(COc2ccc(C(F)(F)C(O)(Cn3cnnn3)c3ccc(F)cc3F)nc2)c1` (stereo not shown) [Compound 52, 3-(((6-(2-(2,4-Difluorophenyl)-1,1-difluoro-2-hydroxy-3-(1H-tetrazol-1-yl)propyl)pyridin-3-yl)oxy)methyl)benzonitrile]: the pest or weed control at 50 ppm was 80 to 100%.

Turning to `OC(Cn1cnnn1)(c1ccc(F)cc1F)C(F)(F)c1ccc(OCc2ccc(C(F)(F)F)cc2F)cn1` (stereo not shown) [Compound 24, 2-(2,4-Difluorophenyl)-1,1-difluoro-1-(5-((2-fluoro-4-(trifluoromethyl)benzyl)oxy)pyridin-2-yl)-3-(1H-tetrazol-1-yl)propan-2-ol], the pest or weed control at 50 ppm is 80 to 100%.

For the molecule `OC(Cn1cnnn1)(c1ccc(F)cc1F)C(F)(F)c1ccc(OCc2cccc(F)c2)cn1` (stereo not shown) [Compound 3, 2-(2,4-Difluorophenyl)-1,1-difluoro-1-(5-(3-fluorobenzyloxy)pyridin-2-yl)-3-(1H-tetrazol-1-yl)propan-2-ol], the pest or weed control at 50 ppm is 80 to 100%.

Consider `OC(Cn1cnnn1)(c1ccc(F)cc1F)C(F)(F)c1ccc(Oc2ccc(F)cc2)cn1` (stereo not shown) [Compound 6, 2-(2,4-Difluorophenyl)-1,1-difluoro-1-(5-(4-fluorophenoxy)pyridin-2-yl)-3-(1H-tetrazol-1-yl)propan-2-ol], for which the pest or weed control at 50 ppm lay within 80 to 100%.

In the case of `N#Cc1ccc(COc2ccc(C(F)(F)C(O)(Cn3cnnn3)c3ccc(F)cc3F)nc2)c(F)c1` (stereo not shown) [Compound 57, 4-(((6-(2-(2,4-Difluorophenyl)-1,1-difluoro-2-hydroxy-3-(1H-tetrazol-1-yl)propyl)pyridin-3-yl)oxy)methyl)-3-fluorobenzonitrile], the pest or weed control at 50 ppm fell in the range of 80 to 100%.

With `N#Cc1ccc(COc2ccc(C(F)(F)C(O)(Cn3ncnn3)c3ccc(F)cc3F)nc2)cc1` (stereo not shown) [Compound 83, 4-(((6-(2-(2,4-Difluorophenyl)-1,1-difluoro-2-hydroxy-3-(2H-tetrazol-2-yl)propyl)pyridin-3-yl)oxy)methyl)benzonitrile], the pest or weed control at 50 ppm was 40 to 59%.

Regarding `OC(Cn1cnnn1)(c1ccc(F)cc1F)C(F)(F)c1ccc(OCC(F)(F)c2ccc(Cl)cc2)cn1` (stereo not shown) [Compound 122, 1-(5-(2-(4-chlorophenyl)-2,2-difluoroethoxy)pyridin-2-yl)-2-(2,4-difluorophenyl)-1,1-difluoro-3-(1H-tetrazol-1-yl)propan-2-ol], the pest or weed control at 50 ppm was in the range of 80 to 100%.

As to `N#Cc1ccc(F)c(COc2ccc(C(F)(F)C(O)(Cn3cnnn3)c3ccc(F)cc3F)nc2)c1` (stereo not shown) [Compound 59, 3-(((6-(2-(2,4-Difluorophenyl)-1,1-difluoro-2-hydroxy-3-(1H-tetrazol-1-yl)propyl)pyridin-3-yl)oxy)methyl)-4-fluorobenzonitrile], the pest or weed control at 50 ppm was in the range of 80 to 100%.

Turning to `CC(C)COc1ccc(C(F)(F)C(O)(Cn2cnnn2)c2ccc(F)cc2F)nc1` (stereo not shown) [Compound 43, 2-(2,4-Difluorophenyl)-1,1-difluoro-1-(5-isobutoxypyridin-2-yl)-3-(1H-tetrazol-1-yl)propan-2-ol], the pest or weed control at 50 ppm fell in the range of 80 to 100%.

Regarding `OC(Cn1cnnn1)(c1ccc(F)cc1F)C(F)(F)c1ccc(OCc2cc(F)cc(F)c2)cn1` (stereo not shown) [Compound 35, 1-(5-((3,5-Difluorobenzyl)oxy)pyridin-2-yl)-2-(2,4-difluorophenyl)-1,1-difluoro-3-(1H-tetrazol-1-yl)propan-2-ol], the pest or weed control at 50 ppm lay in the range of 80 to 100%.

Take `OC(Cn1cnnn1)(c1ccc(F)cc1F)C(F)(F)c1ccc(Oc2ccc(Cl)cn2)cn1` (stereo not shown) [Compound 95, 1-(5-((5-chloropyridin-2-yl)oxy)pyridin-2-yl)-2-(2,4-difluorophenyl)-1,1-difluoro-3-(1H-tetrazol-1-yl)propan-2-ol]: the pest or weed control at 50 ppm was in the range of 80 to 100%.

Consider `OC(Cn1cncn1)(c1ccc(F)cc1F)C(F)(F)c1ccc(OCc2cccc(F)c2F)cn1` (stereo not shown) [Compound 45, 1-(5-((2,3-Difluorobenzyl)oxy)pyridin-2-yl)-2-(2,4-difluorophenyl)-1,1-difluoro-3-(1H-1,2,4-triazol-1-yl)propan-2-ol], for which the pest or weed control at 50 ppm is 80 to 100%.

As to `OC(Cn1cnnn1)(c1ccc(F)cc1F)C(F)(F)c1ccc(Oc2cccc(F)c2)cn1` (stereo not shown) [Compound 77, 2-(2,4-Difluorophenyl)-1,1-difluoro-1-(5-(3-fluorophenoxy)pyridin-2-yl)-3-(1H-tetrazol-1-yl)propan-2-ol], the pest or weed control at 50 ppm was in the range of 60 to 79%.

On to `N#Cc1ccc(COc2ccc(C(F)(F)C(O)(Cn3cnnn3)c3ccc(Cl)cc3F)nc2)cc1` (stereo not shown) [Compound 55, 4-(((6-(2-(4-Chloro-2-fluorophenyl)-1,1-difluoro-2-hydroxy-3-(1H-tetrazol-1-yl)propyl)pyridin-3-yl)oxy)methyl)benzonitrile], for which the pest or weed control at 50 ppm was in the range of 80 to 100%.

With `OC(Cn1cnnn1)(c1ccc(F)cc1F)C(F)(F)c1ccc(OCc2cccc(F)c2F)cn1` (stereo not shown) [Compound 23, 1-(5-((2,3-Difluorobenzyl)oxy)pyridin-2-yl)-2-(2,4-difluorophenyl)-1,1-difluoro-3-(1H-tetrazol-1-yl)propan-2-ol], the pest or weed control at 50 ppm was in the range of 80 to 100%.

With `CC(C)Oc1ccc(C(F)(F)C(O)(Cn2cnnn2)c2ccc(F)cc2F)nc1` (stereo not shown) [Compound 42, 2-(2,4-Difluorophenyl)-1,1-difluoro-1-(5-isopropoxypyridin-2-yl)-3-(1H-tetrazol-1-yl)propan-2-ol], the pest or weed control at 50 ppm is 80 to 100%.

A further test concerns Septoria tritici (ATCC 26517). The test is described as follows: Minimum Inhibitory Concentration (MIC) vs. Septoria tritici. Type of test: cell-based. The following applies: Zymoseptoria tritici, ATCC26517, 168 h; S. tritici ATCC 26517; 50% growth reduction; 7 days at 22 °C; read-out: Septoria Rating (MIC). Here is the method:
C. Minimum Inhibitory Concentration (MIC) vs. Septoria Tritici Compounds were assessed for their ability to inhibit the growth of a common strain of the fungal plant pathogen Septoria tritici (ATCC 26517) using a procedure based on a Clinical and Laboratory Standards Institute (CLSI) microdilution assay protocol for filamentous fungi. Stock solutions of the test compounds and standards were prepared in DMSO at 6400 μg/mL. Each stock solution was used to prepare a 2-fold dilution series ranging from 16 to 0.016 μg/mL (total of 11 compound concentrations) in RPMI-1640 (Roswell Park Memorial Institute) medium containing 3-(N-morpholino)propanesulfonic acid (MOPS) buffer and 2% DMSO. A 100 μL aliquot of the dilutions was added to columns 1 (16 μg/mL compound) through 11 (0.016 μg/mL compound) of a 96-well microtiter plate. This format was replicated in a second row of the microtiter plate. Thus, each microtiter plate could include 11 concentrations of four test or control compounds replicated twice. A 100 μL aliquot of RPMI-1640/MOPS/2% DMSO medium was added to column 12 (no compound control) of the microtiter plate. A fresh culture of S. tritici was used to prepare a solution of approximately 5×10^4 colony-forming units per milliliter (cfu/mL) in RPMI/MOPS medium without DMSO. A 100 μL aliquot of this solution was added to all 96 wells in the microtiter plate. […]
As usually defined, the MIC is the smallest concentration in the dilution series that meets the test's criterion for growth inhibition. With `OC(Cn1cnnn1)(c1ccc(F)cc1F)C(F)(F)c1ccc(OCc2ccccc2)cn1` (stereo not shown) [Compound 30, 1-(5-(Benzyloxy)pyridin-2-yl)-2-(2,4-difluorophenyl)-1,1-difluoro-3-(1H-tetrazol-1-yl)propan-2-ol], the MIC is at most 0.5 µg/mL.

Regarding `CC#CCOc1ccc(C(F)(F)C(O)(Cn2cnnn2)c2ccc(F)cc2F)nc1` (stereo not shown) [Compound 32, 1-(5-(But-2-yn-1-yloxy)pyridin-2-yl)-2-(2,4-difluorophenyl)-1,1-difluoro-3-(1H-tetrazol-1-yl)propan-2-ol], the MIC is at most 0.5 µg/mL.

(Values after US8796001B2, “Metalloenzyme inhibitor compounds” (Viamet Pharmaceuticals, Inc., priority 2011, dated 2014).)
